The values below come from publication PMC12320831, “Synthesis and Biological Evaluation of New Chalcogen Semicarbazone (S, Se) and Their Azole Derivatives against Chagas Disease” (Journal of Medicinal Chemistry, 2024).

For data set [1], the system named is T. cruzi CAI/72 strain. Briefly: Antiparasitic activity in C2C12 cells infected with T. cruzi CAI/72 (image-based assay). The format is cell-based.
The test system of a further data set is C2C12 cells. Briefly: Host cell cytotoxicity (C2C12 viability). The format is cell-based, Mouse. The settings on record: 10 µM; < 50% viability considered cytotoxic. Put shortly: (§1)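 Mouse C2C12 myoblasts co-seeded with CAI/72 trypomastigotes (10:1 parasite:cell) on compound, 48 h at 37 °C, 5% CO2. DAPI-stained fixed cells imaged; parasites per host cell normalized to 40 μM BNZ and DMSO. EC50 and C2C12 viability from dose-response curves, three biological replicates in triplicate.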

Another data set deals with T1, recombinant Cz (cruzain) (Trypanosoma cruzi, UniProt P25779).
T1 construct: Cz was expressed and purified as described in da Silva et al; made in house
T1 sequence (P25779 123-337 limits assumed): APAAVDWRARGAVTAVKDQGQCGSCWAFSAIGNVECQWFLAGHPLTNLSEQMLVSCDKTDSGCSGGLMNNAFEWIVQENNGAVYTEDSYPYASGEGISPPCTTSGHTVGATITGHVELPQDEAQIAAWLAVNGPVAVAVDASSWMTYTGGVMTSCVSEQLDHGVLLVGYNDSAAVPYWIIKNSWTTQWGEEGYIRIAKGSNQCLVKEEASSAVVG
Briefly: biochemical. The settings on record: for Cz inhibition (%): 10 µM; for SICz: ratio between IC50 hCatL and IC50 Cz; for inhibition at 10 µM: read-out: Cz inhibition (%), 10 µM. Put shortly: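 Cruzain (1 nM) was preincubated 10 min with compound in 0.1 M sodium acetate pH 5.5, 1 mM DTT, 0.01% Triton X-100, then 2.5 μM Z-FR-AMC (final) was added. Fluorescence (360/460 nm) was read for 10 min at 25 °C and normalized to DMSO.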

A short description of data set [2]: DPPH radical scavenging (antioxidant) assay. The settings on record: for Percentage of inhibited DPPH (2 h): mean ± SEM. As to the method:
The antioxidant capacity of the selected Se compound was tested using the DPPH assay described by Astrain-Redin. The compound was tested at three different concentrations (0.06, 0.03, and 0.015 mg/mL) and we used two positive controls: ascorbic acid (ASC) and trolox (TRO). A solution of DPPH (2,2-diphenyl-1-picrylhydrazyl) in methanol (0.04 mg/mL, preserved in the dark) was prepared and 100 μL of this stock solution was added to 100 μL of tested compound solution. The color change, from purple (radical) to yellow (reduced), was measured at 517 nm at different time points (0, 5, 15, 30, 60, 90, and 120 min). All measurements were carried out in triplicate and recorded on a BioTek PowerWave XS spectrophotometer (Biotek). Data were collected using BioTek Gen5Microplate reader and Imager software (Agilent, version 3.12). Results are expressed as a percentage of inhibited DPPH ± standard error of the mean (SEM), calculated using the following formula %inhibitedDPPH=Acontrol−Asample/Acontrol×100 where A control refers to the absorbance of the negative control and A sample refers to the absorbance of the tested compound.

Data set [3] can be described thus: Host cell cytotoxicity (C2C12 viability). The format is cell-based, Mouse. The settings on record: mouse; for viability at 48 h, 10 µM: < 50% viability considered cytotoxic; for CC50 at 48 h: viability calculated at 10 μM. The method in brief:
as §1

Data set [4] concerns the target T2, Recombinant human cathepsin L (hCatL) (Homo sapiens, UniProt P07711).
T2 construct: purchased R&D Systems 952-CY
The data set is described as follows: Human cathepsin L inhibition assay (Z-FR-AMC substrate). The class given is biochemical. As to the method: Compounds were screened at 10 μM. […] The experiment was performed for 30 min.
All experiments were accomplished in a 384-well black microplate, using a Synergy HTX (Biotek) plate reader at 25 °C with absorption/emission wavelengths of 360/460 nm. All assays were performed in triplicate wells and DMSO was used as a vehicle control. Enzymatic activity was measured and normalized to DMSO controls, and the inhibitor E-64 (10 μM) was used as a positive control for all assays. All experiments were performed in triplicates, with at least two independent assays (n = 6 data points). IC50 values were determined through nonlinear regression. Obtained data were treated and analyzed using GraphPad Prism 9.0 (GraphPad Software, La Jolla, California).

In data set [5] the test system is Cz isolated and purified from Tulahuen 2 strain epimastigotes. Further details: method as in Jasinski et al. To be noted: different assay conditions and enzyme origin; ref Jasinski et al.; cited from earlier work.
A short description of data set [6]: Compound stability (authors' observation). The class given is physicochemical. The settings on record: reason for discontinuation.
Data set [7] relates to T. cruzi CAI/72 strain. Briefly: Antiparasitic activity in C2C12 cells infected with T. cruzi CAI/72 (image-based assay). The format is cell-based. To be noted: Trypanosoma cruzi, read-out: Anti-Tc CAI/72 activity (%).
Setting [8] is: 10 µM, C2C12 infected cells, read-out: Anti-Tc CAI/72 activity (%).
[9] abbreviates: C2C12 myoblast cells infected with trypomastigotes.

Values joined by “and” are separate entries in the source; they are usually repeats but may differ in a detail not shown here. Equal values may be shown once. “Also recorded” adds a separate entry of the source. Read-outs that look alike come from different tables or passages of the source.

T2 sequence (P07711 114-333): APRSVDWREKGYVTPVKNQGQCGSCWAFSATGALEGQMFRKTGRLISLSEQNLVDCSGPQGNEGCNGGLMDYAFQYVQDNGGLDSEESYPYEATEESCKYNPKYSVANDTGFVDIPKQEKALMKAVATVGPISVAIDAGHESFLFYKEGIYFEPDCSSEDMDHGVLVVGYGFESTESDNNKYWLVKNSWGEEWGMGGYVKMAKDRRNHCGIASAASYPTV

As for “(E)-2-(1-(Thiophen-3-yl)ethylidene)hydrazine-1-carbothioamide [Compound S1l]”, in the data set on T. cruzi CAI/72 strain [1] (setting [8]), the inhibition was 10.9%. Moreover, the “C2C12 viability (%)” value with C2C12 cells is listed as over 100%. Moreover, the “Cz inhibition (%)” value on recombinant Cz (cruzain) came out at 62.83%.

Regarding `Cc1c(C)c2c(c(C)c1O)CCC(C)(C(=O)O)O2` (stereo not shown) [TRO, trolox], the “Percentage of inhibited DPPH (2 h)” value in data set [2] (0,03 mg/ml) is recorded as 79,33 ± 0,88%; in data set [2] (0,06 mg/ml), 79,67 ± 0,67%; in data set [2] (0,015 mg/ml), 79,33 ± 1,33%. For the same molecule, the “time to reach the plateau of the DPPH kinetic curve” value in data set [2] (0.015 mg/mL) stood at 5 min. In addition, the “percentage of activity in the DPPH kinetic curve” value in data set [2] (0.015 mg/mL, kinetic curve over 2 h) was determined as 80%.

Regarding `C/C(=N\NC(N)=S)c1cccc(Cl)c1` [Compound S1i, (E)-2-(1-(3-Chlorophenyl)ethylidene)hydrazine-1-carbothioamide], the inhibition at 10 µM in the data set with T. cruzi CAI/72 strain [1] (Trypanosoma cruzi, 10 µM, C2C12 infected cells, read-out: Anti-Tc CAI/72 activity (%)) was 56.2%; at recombinant Cz (cruzain), over 85%; in data set [4] (10 µM) it was 97.2%. In the data set with T. cruzi CAI/72 strain [1] (Trypanosoma cruzi, intracellular amastigotes in C2C12 cells, 48 h, mean of three experiments in triplicate (n = 9) ± SD, read-out: EC50 Tc CAI/72), the EC50 was about 10000 nM. Moreover, in [3] (setting [9]), the viability at 48 h, 10 µM was over 100%. Further, in data set [3] (setting [9]), the 50% cytotoxic concentration (CC50) at 48 h is over 10000 nM. Further, on recombinant Cz (cruzain), the “Cz inhibition (%)” value is listed as 100.00%. In addition, the IC50 on recombinant Cz (cruzain) (each of two biological replicates in triplicate, read-out: IC50 Cz, single biological replicate (Figure 3)) was 2 nM and 3 nM; at recombinant Cz (cruzain) (mean of two experiments in triplicate (n = 6) ± SEM, read-out: IC50 Cz), 2.5 ± 0.51 nM; in data set [4] (each of two biological replicates in triplicate, read-out: IC50 hCatL, single biological replicate (Figure 4)), 58 nM and 120 nM; in [4] (mean of two experiments in triplicate (n = 6) ± SEM, read-out: IC50 hCatL), 89.4 ± 31.4 nM; in data set [5], 29900 nM. The results for the SICz on recombinant Cz (cruzain) and at recombinant Cz (cruzain) (listed as S 1i) were 35.76 and 36, respectively.

`C/C(=N\NC(N)=[Se])c1ccc(C#N)cc1` [Se1e, (E)-2-(1-(4-Cyanophenyl)ethylidene)hydrazine-1-carboselenoamide]: the inhibition at 10 µM with T. cruzi CAI/72 strain [1] (Trypanosoma cruzi, C2C12, read-out: Anti-Tc CAI/72 activity (%)) worked out at 57.1%; at recombinant Cz (cruzain), 104%. The molecule also had a viability at 48 h, 10 µM in data set [3] of over 100%. In [6], the “stability of the compound” value is “stability problems; also recorded: lack of stability”.

Regarding “(E)-2-(1-((3r,5r,7r)-Adamantan-1-yl)ethylidene)hydrazine-1-carbothioamide [Compound S1q]”, the inhibition in the data set on T. cruzi CAI/72 strain [1] (setting [8]) was 38.7%. In the data set on C2C12 cells, the “C2C12 viability (%)” value is on record as over 100%. Also, the “Cz inhibition (%)” value on recombinant Cz (cruzain) is 5.06%.

On to `CN1CCN(C(=O)N[C@@H](Cc2ccccc2)C(=O)N[C@H](/C=C/S(=O)(=O)c2ccccc2)CCc2ccccc2)CC1` [Compound K777, reference compound], for which, in data set [3] (setting [9]), the viability at 48 h, 10 µM is over 100% and the CC50 at 48 h was over 10000 nM. Besides, at recombinant Cz (cruzain), the SICz is reported as 0.13. Further, in the data set on T. cruzi CAI/72 strain [7], the inhibition at 3 µM worked out at 61%.

For “(E)-2-(1-(4-Cyanophenyl)ethylidene)hydrazine-1-carbothioamide [Compound S1e]”, the inhibition with T. cruzi CAI/72 strain [1] (setting [8]) is 31.6%. In addition, in the data set on C2C12 cells, the “C2C12 viability (%)” value is given as over 100%. At recombinant Cz (cruzain), the “Cz inhibition (%)” value stood at 98.77%.

In the case of `O=C1O[C@H]([C@@H](O)CO)C(O)=C1O` [ASC, ascorbic acid], the “Percentage of inhibited DPPH (2 h)” value in data set [2] (0,03 mg/ml) was 80,33 ± 0,33%; in [2] (0,06 mg/ml), 80,33 ± 0,67%; in [2] (0,015 mg/ml), 65,33 ± 2,03%. Besides, the “time to reach the plateau of the DPPH kinetic curve” value in [2] (0.015 mg/mL) was found to be 0 min.
